Assays:
panel of 4 panelists = assay: Organoleptic test of the compounds against sucrose and Pterocaryoside A; format: in vivo; design: key to sweetness compared to sucrose: 3: sweeter than the control solution; 2: sweetness comparable with the control solution; 1: less sweet than the control solution but still sweet; details: for sweetness compared to sucrose: 0.4 mg/ml (400 ppm) in non-carbonated mineral water vs sucrose 20 mg/ml, panel of 4 panelists; for comment (bitter off taste): 0.4 mg/ml (400 ppm) in non-carbonated mineral water, compared with Pterocaryoside A
Description: (§1) The isolated pure compounds were dissolved in non-carbonated mineral water (“Fonsana Quelle”) in a concentration of 0.4 mg/ml (400 ppm). The sweet taste of each sample was compared by a panel of 4 panelists with a solution of sucrose in a concentration of 20 mg/ml.

[1] = in vivo; cited from earlier work
[2] = Solubility in non-carbonated mineral water at the test concentration; format: physicochemical; details: 0.4 mg/ml in non-carbonated mineral water
Description: as §1

panel = details: ammonium salt; panel rating; cited from earlier work

| Compound | sweetness compared to sucrose (panel of 4 panelists) | comment (bitter off taste) (panel of 4 panelists) | also measured |
| --- | --- | --- | --- |
| C=C(C)C(O)C(O)CC(C)(O)C1CCC2(C)C1C(O[C@@H]1OCC(O)[C@H](O)[C@H]1O)CC1C(C)(CCC(=O)O)C(C(=C)C)CCC12C (stereo in doubt) [Compound D, 3-(6,9a,9b-trimethyl-7-(prop-1-en-2-yl)-3-(2,4,5-trihydroxy-6-methylhept-6-en-2-yl)-4-((2S,3R,4S,5S)-3,4,5-trihydroxytetrahydro-2H-pyran-2-yloxy)dodecahydro-1H-cyclopenta[a]naphthalen-6-yl)propanoic acid] | 3 | less bitter than Pterocaryoside A |  |
| C=C(C)C1CCC2(C)C(CC(O[C@@H]3OC[C@H](O)[C@H](O)[C@H]3O)C3C(C4(C)CCC(C(C)(C)O)O4)CCC32C)C1(C)CCC(=O)O (stereo partly drawn) [Compound A, 3-(3-(5-(2-hydroxypropan-2-yl)-2-methyltetrahydrofuran-2-yl)-6,9a,9b-trimethyl-7-(prop-1-en-2-yl)-4-((2S,3R,4S,5S)-3,4,5-trihydroxytetrahydro-2H-pyran-2-yloxy)dodecahydro-1H-cyclopenta[a]naphthalen-6-yl)propanoic acid] | 3 | less bitter than Pterocaryoside A |  |
| C=C(C)C(O)CCC(C)(O)C1CCC2(C)C1C(OC1OC(COC(C)=O)C(O)C1O)CC1C(C)(CCC(=O)O)C(C(=C)C)CCC12C (stereo not drawn) [Compound B, 3-(4-(5-(acetoxymethyl)-3,4-dihydroxytetrahydrofuran-2-yloxy)-3-(2,5-dihydroxy-6-methylhept-6-en-2-yl)-6,9a,9b-trimethyl-7-(prop-1-en-2-yl)dodeca hydro-1H-cyclopenta[a]naphthalen-6-yl)propanoic acid] | 1 | slightly bitter off taste comparable to |  |
| C=C(C)C(O)C(O)CC(C)(O)C1CCC2(C)C1C(O[C@@H]1O[C@H](C)[C@@H](O)[C@H](O)[C@H]1O)CC1C(C)(CCC(=O)O)C(C(=C)C)CCC12C (stereo partly drawn) [Compound C, 3-(6,9a,9b-trimethyl-7-(prop-1-en-2-yl)-3-(2,4,5-trihydroxy-6-methylhept-6-en-2-yl)-4-((2R,3R,4S,5S,6R)-3,4,5-trihydroxy-6-methyltetrahydro-2H-pyran-2-yloxy)dodecahydro-1H-cyclopenta[a]naphthalen-6-yl)propanoic acid] | 3 | less bitter than Pterocaryoside A |  |
| C=C(C)C1CCC2(C)C(CC(O[C@@H]3OC[C@H](O)[C@H](O)[C@H]3O)C3C(C(C)=O)CCC32C)C1(C)CCC(=O)O (stereo partly drawn) [Compound E, 3-(3-acetyl-6,9a,9b-trimethyl-7-(prop-1-en-2-yl)-4-((2S,3R,4S,5S)-3,4,5-trihydroxytetrahydro-2H-pyran-2-yloxy)dodecahydro-1H-cyclopenta[a]naphthalen-6-yl)propanoic acid] | 3 | less bitter than Pterocaryoside A |  |
| C[C@H](CC[C@@H](O[C@@H]1O[C@H](CO[C@@H]2O[C@H](CO)[C@@H](O)[C@H](O)[C@H]2O)[C@@H](O)[C@H](O)[C@H]1O[C@@H]1O[C@H](CO)[C@@H](O)[C@H](O)[C@H]1O)C(C)(C)O)[C@H]1CC[C@@]2(C)[C@@H]3CC=C4[C@@H](CC[C@H](O[C@@H]5O[C@H](CO)[C@@H](O[C@@H]6O[C@H](CO)[C@@H](O)[C@H](O)[C@H]6O)[C@H](O)[C@H]5O)C4(C)C)[C@]3(C)[C@H](O)C[C@]12C [iso-mogroside V] |  |  | aftertaste [1]: certain bitter aftertaste |
| C[C@H](CC[C@@H](O[C@@H]1O[C@H](CO[C@@H]2O[C@H](CO)[C@@H](O)[C@H](O)[C@H]2O)[C@@H](O)[C@H](O)[C@H]1O[C@@H]1O[C@H](CO)[C@@H](O)[C@H](O)[C@H]1O)C(C)(C)O)[C@H]1CC[C@@]2(C)[C@@H]3CC=C4[C@@H](CC[C@H](O[C@@H]5O[C@H](CO[C@@H]6O[C@H](CO)[C@@H](O)[C@H](O)[C@H]6O)[C@@H](O)[C@H](O)[C@H]5O)C4(C)C)[C@]3(C)[C@H](O)C[C@]12C [mogroside V] |  |  | aftertaste [1]: certain bitter aftertaste |
| Pterocaryoside A |  | strong bitter and slightly hot off-taste | sweetness compared with the sucrose solution (in words) (panel of 4 panelists; solution at desired 0.4 mg/ml, not completely dissolved, vs sucrose 20 mg/ml): comparable to the sweetness of the sucrose solution; solubility at the desired concentration [2]: not completely soluble; off-taste (panel): persistent, mildly bitter, off-taste; onset of sweetness (panel): instantaneous; sweetness relative to sucrose (panel): about 50 times sweeter than 2% sucrose |
| Pterocaryoside B |  |  | off-taste (panel): persistent, mildly bitter, off-taste; onset of sweetness (panel): instantaneous; sweetness relative to sucrose (panel): about 100 times sweeter than 2% sucrose |
